The text below walks through data of US20260345555A1, “Compositions and Methods for Protecting Salivary Glands from Off-Target Radiation Damage” (University of Rochester, priority 2022, published 2026).

Structures can show the parent of a compound that is named as a salt.

In one series the test system is lymphocyte cells. Conditions: viability of lymphocytes as primary readout; cited from earlier work.
Series [1] relates to senescence-associated β-galactosidase in salivary gland cell clusters (SGm). Kind of series: Cellular senescence assay (SPiDER-βGal) in salivary gland tissue chip, 5 days post-radiation (15 Gy); also second screen of library hits at 100 μM. As to Senescence (radioprotection): key: +: radioprotection; ~: partial radioprotection; —: no radioprotection. The format is cell-based, mouse. Conditions: for Senescence normalized mean intensity: second screen of library hits at 100 μM, 5 days post-radiation, only drugs nonsignificant compared to 0 Gy in the glutathione assay. The source says:
The chip platform consists of an array of near-spherical microbubble (MB) cavities formed in poly(dimethylsiloxane) (PDMS). Each chip, containing ~50 MBs, affixed within wells of a 96-well plate (FIG. 1C). Primary salivary gland cell clusters (FIG. 1A), suspended in a poly(ethylene glycol) (PEG) hydrogel precursor and MMP-degradable peptide crosslinker solution together with the photoinitiator LAP, were applied to the chip allowing the clusters to deposit into the MBs (FIG. 1D). In situ polymerization of the hydrogel was achieved using long-wave, low intensity UV light. Over time, the cell clusters aggregate and proliferate to form SGm (FIG. 1C).
For senescence, a protocol similar to the glutathione assay was followed to determine the optimal time point post-radiation for detecting a change in senescence between 0 Gy and 15 Gy, as measured by senescence-associated β-galactosidase activity.
The glutathione and senescence assays were used to screen a library of FDA-approved drugs (Selleck Chemicals) at 100 μM. Drugs were first screened using the glutathione assay according to the timeline depicted in FIG. 2A. […] Hits with the glutathione assay were then tested with the senescence assay and considered a “double hit” if senescence levels were statistically similar to levels at 0 Gy (FIG. 4, black circles).
Mice were euthanized and the submandibular glands (SMG) were removed and chopped with a razor blade for 5 min. […] Cells were centrifuged, then resuspended in HBSS with 15 mM HEPES and passed through 100 μm and 20 μm mesh filters to isolate clusters between 20-100 μm. […] The isolated clusters were combined with hydrogel precursor solution and seeded in MB array-based chips as described below.
The cell/gel precursor solution (25 μL for 48 well; 20 μL for 96 well) was pipetted onto the MB chips and incubated for 30 min, pipetting every 10 min to redisperse cells that had settled onto the surface of the chip.
A cellular senescence assay for the chips was developed by adapting the Cellular Senescence Detection Kit—SPiDER-βGal (Dojindo Molecular Technologies, Inc. SG04). Bafilomycin A1 and SPiDER-βGal stock solutions were prepared in DMSO per manufacturer directions. The assay was performed by first incubating the chips with bafilomycin A1 (1:1000 dilution in media) for 1 hr at 37 °C. […] Chips were washed twice with media and imaged using a fluorescence microscope with a Texas Red filter (Excitation: 580 nm; Emission: 604 nm).
For radioprotection experiments, SGm were cultured in MB-hydrogel chips for 4 days, then drugs were added to the chips 30 min prior to irradiation and washed out with media 30 min post-radiation treatment. […] The glutathione and senescence assays were performed at 4- and 5-days post-radiation. For assay validation experiments, at least 3 chips (N=3) were used for each drug, corresponding to >100 MBs (n>100); these values are listed in the figure description for each experiment. Mean, standard deviation, and statistics were calculated based on the number of MBs (n).
For screening of the Selleck Chemicals compound library, the same treatment scheme was used, with drugs administered at 100 μM. One MB chip (N=1) was used per compound, with ~40-50 MBs per chip […]; statistics were calculated using the number of MBs (n) and compared to 0 Gy controls.
For both the glutathione and cellular senescence assays, images were quantified in ImageJ.

For series [2] the following is noted: in vivo; cited from earlier work.
Series [3] relates to Reduced glutathione in salivary gland cell clusters (SGm). Put plainly: Glutathione assay in salivary gland tissue chip, 4 days post-radiation (15 Gy); also first screen of Selleck library at 100 μM. As to Glutathione (radioprotection): key: +: radioprotection; ~: partial radioprotection; —: no radioprotection. The class given is cell-based, mouse. Conditions: for Glutathione normalized mean intensity: first screen of Selleck library at 100 μM; for Glutathione normalized mean intensity / prevention of radiation-induced reduction of glutathione levels: 4 days post-radiation; for hit in the drug screen: glutathione assay first screen, 100 μM; for protection against glutathione level changes resulting from radiation: 50 μM; for Estimated EC50, Glutathione: nonlinear fit in Prism of dose response curves. In short, it runs like this:
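Mouse submandibular gland cell clusters (20–100 μm) in PEG hydrogel on microbubble chips, cultured 4 days to form SGm, then dosed 30 min before and during 15 Gy irradiation and washed out 30 min after. Glutathione measured 4 days post-radiation; library compounds screened at 100 μM, hits matching 0 Gy levels.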

For series [4] the following is noted: literature; cited from earlier work.
For series [5] the following is noted: in vivo; cited from earlier work. The source holds these as a separate data set.
The conditions of series [6]: reason for exclusion from further testing; cited from earlier work.
Series [7] relates to p53-dependent and independent apoptosis. The note with it: cited from earlier work.
In a further series the test system is salivary flow rate. The note with it: swine; cited from earlier work.
A further series has as its system COX-1. Conditions: role: inhibitor; cited from earlier work.
Series [8] relates to irradiated salivary glands. Conditions: literature; cited from earlier work.

For `COc1c(N2C[C@@H]3CCCN[C@@H]3C2)c(F)cc2c(=O)c(C(=O)O)cn(C3CC3)c12` [moxifloxacin], the “radioprotection of lymphocytes” value in the series on lymphocyte cells is “radioprotectors”.

For `CC(O)(P(=O)(O)O)P(=O)(O)O` [Etidronate (Didronel)], in series [1] (15 Gy), the “Senescence normalized mean intensity” value was 0.992. Also, the “bioavailability” value in series [2] was “poor bioavailability”. Also, the “Glutathione normalized mean intensity” value in [3] (15 Gy) was 0.9486.

In the case of `CCCSc1ccc2nc(NC(=O)OC)[nH]c2c1` [Albendazole (Albenza)], the “bioavailability” value in series [2] was “poor bioavailability”.

`CC1COc2c(N3CCN(C)CC3)c(F)cc3c(=O)c(C(=O)O)cn1c23` (stereo not shown) [ofloxacin]: the “radioprotection of lymphocytes” value in the series on lymphocyte cells was “radioprotectors”. The “hit in the drug screen” value in [3] was “not hits”.

Regarding `Cc1ccc(S(=O)(=O)NC(=O)NN2CC3CCCC3C2)cc1` (stereo not shown) [gliclazide], in series [4], the “antioxidant activity” value was “antioxidant activity” and the “radioprotection” value is reported as “radioprotectors”.

Consider `CCn1cc(C(=O)O)c(=O)c2cc(F)c(N3CCNCC3)cc21` [norfloxacin], for which the “radioprotection of lymphocytes” value with lymphocyte cells was “radioprotectors”. Besides, the “hit in the drug screen” value in [3] is recorded as “not hits”.

Take `COc1ccc(Cl)cc1C(=O)NCCc1ccc(S(=O)(=O)NC(=O)NC2CCCCC2)cc1` [Glyburide]: the “radioprotection” value in [4] is reported as “radioprotectors”.

`CC1=NN(c2ccccc2)C(=O)C1` [Edaravone, 3-methyl-1-phenyl-2-pyrazoline-5-one]: the “Senescence (radioprotection)” value in series [1] (100 μM), in series [1] (1 mM) and in [1] (4 mM) was “+” in each case. For the same molecule, in series [1] (100 μM), the “protection against radiation-induced senescence” value is “protective”. The inhibition at 100 µM in [1] (Mus musculus, light or radiation study, 120 h, 100 μM, versus untreated, irradiated controls, read-out: reduction in senescence) came out at 96%. Besides, the inhibition at 1000 µM in series [1] (Mus musculus, light or radiation study, 120 h, 1 mM, versus untreated, irradiated controls, read-out: reduction in senescence) turned out to be 94%. Further, the inhibition at 4000 µM in [1] (Mus musculus, light or radiation study, 120 h, 4 mM, versus untreated, irradiated controls, read-out: reduction in senescence) is 113%. Further, in series [4], the radio-protective dose range is 100 to 1000 µM. In addition, in [3] (0.1 mM), the “radioprotection using the glutathione assay” value was “partial radioprotection”. Further, in series [3] (0.1 mM, 15 Gy), the glutathione levels maintained is ~ 43%. In addition, the “Glutathione (radioprotection)” value in series [3] (1 mM) was “+”. For the same molecule, the “prevention of radiation-induced reduction of glutathione levels” value is “showed protection” in series [3] (1 mM, 15 Gy) and “not at 4 mM” in series [3] (4 mM, 15 Gy).

Take `NCCCNCCSP(=O)(O)O` [amifostine]: the “adverse effects” value in series [5] is “severe side effects, including nausea, vomiting, and hypotension”.

Consider `COC(=O)[C@@H]1CC2=CC(=O)CC[C@]2(C)[C@@]23O[C@@H]2C[C@@]2(C)[C@@H](CC[C@@]24CCC(=O)O4)[C@H]13` [Eplerenone], for which the “solubility” value in [6] was “concerns with solubility”.

Turning to `COC(=O)C1=C(C)NC(C)=C(C(=O)OC)C1c1ccccc1[N+](=O)[O-]` [Nifedipine (Adalat)], the “Senescence normalized mean intensity” value in series [1] (15 Gy) came to 0.9725. Also, in series [3] (15 Gy), the “Glutathione normalized mean intensity” value turned out to be 0.9216.

Regarding `O=C(O)c1ccc(/C=C/S(=O)(=O)Cc2ccc(Cl)cc2)cc1` [Ex-Rad], the “apoptosis” value in [7] is “reduce p53-dependent and independent apoptosis”. In series [1] (50 μM, 15 Gy), the “radioprotection (senescence)” value is on record as 45%. For the same molecule, the “protection against glutathione level changes resulting from radiation” value in series [3] (15 Gy) is “no effect observed”.

As for `C[C@H]1COc2c(N3CCN(C)CC3)c(F)cc3c(=O)c(C(=O)O)cn1c23` [levofloxacin], the “radioprotection of lymphocytes” value in the series with lymphocyte cells is given as “radioprotectors”. For the same molecule, the “hit in the drug screen” value in [3] is “not hits”.

With Meropenem, the “radioprotection in dose response, senescence assay” value in [1] (15 Gy) is recorded as “only partial protection”. Further, the “double hit in the drug screen” value in series [1] (glutathione and senescence assays, 100 μM, statistically similar to 0 Gy) is on record as “double hits”. Also, the “concentration range of radioprotection, glutathione assay” value in [3] (dose response, 15 Gy) lay in the range of 0.1 to 100 µM. The “Estimated EC50, Glutathione” value in series [3] (15 Gy) is 100 nM.

Regarding `CO[C@H]1C[C@@H]2CC[C@@H](C)[C@@](O)(O2)C(=O)C(=O)N2CCCC[C@H]2C(=O)O[C@H]([C@H](C)C[C@@H]2CC[C@@H](O)[C@H](OC)C2)CC(=O)[C@H](C)/C=C(\C)[C@@H](O)[C@@H](OC)C(=O)[C@H](C)C[C@H](C)/C=C/C=C/C=C/1C` [Rapamycin], the “Senescence (radioprotection)” value in series [1] (50 μM) is reported as “+”. The “protection against radiation-induced senescence” value in series [1] (50 μM, 15 Gy) is reported as “complete protection”. The “salivary flow rate post-radiation” value with salivary flow rate was “restore salivary flow rate post-radiation”. For the same molecule, the “protection against glutathione level changes resulting from radiation” value in series [3] (15 Gy) was determined as 58%.

For the molecule `NC(N)=NC(=O)c1nc(Cl)c(N)nc1N` [Amiloride hydrochloride (Midamor)], the “Senescence normalized mean intensity” value in series [1] (15 Gy) came out at 1.487. Moreover, the “Glutathione normalized mean intensity” value in series [3] (15 Gy) came out at 1.018.

In the case of `COc1c(N2CCNC(C)C2)c(F)cc2c(=O)c(C(=O)O)cn(C3CC3)c12` (stereo not shown) [gatifloxacin], the “radioprotection of lymphocytes” value in the series with lymphocyte cells is listed as “radioprotectors”. Also, the “hit in the drug screen” value in series [3] was “not hits”.

In the case of `COc1ccc2c(c1)c(CC(=O)O)c(C)n2C(=O)c1ccc(Cl)cc1` [Indomethacin], the “COX-1 inhibition” value with COX-1 was “only blocks COX-1”. Also, the “mitigation of salivary gland damage” value in series [8] is “mitigation of salivary gland damage”. Besides, the figures for the “radioprotection in drug screen” value in [3] (100 μM library screen) and in series [3] (concentrations lower than 100 μM) were “showed radioprotection” and “ineffective”, respectively.

Take `CC(=O)OCC[N+](C)(C)C.[Cl-]` [Acetylcholine chloride]: the “Senescence normalized mean intensity” value in series [1] (15 Gy) came out at 1.205. Besides, in series [3] (15 Gy), the “Glutathione normalized mean intensity” value turned out to be 1.04.

In the case of `Cc1cnc(C(=O)NCCc2ccc(S(=O)(=O)NC(=O)NC3CCCCC3)cc2)cn1` [Glipizide (Glucotrol)], the “radioprotection in dose response, senescence assay” value in series [1] (15 Gy) is listed as “variable protection”. For the same molecule, the “radioprotection in dose response, glutathione assay” value in [3] (dose response, 15 Gy) is “protection only at higher concentrations”. Further, in [3] (15 Gy), the “Estimated EC50, Glutathione” value was 4000 nM.
